# Values of other authors as cited in patent US5700484A, “Sustained release microparticulate caffeine formulation” (Nestec S.A., priority 1996, dated 1997).
# Conditions: 350 mg caffeine oral, aqueous solution
smiles,measurement,value
"Cn1c(=O)c2c(ncn2C)n(C)c1=O [caffeine, 1,3,7-trimethyl xanthine]",maximum plasma level,approximately 8.3 μg/ml
